Results from ChEMBL document CHEMBL3272213, “Synthesis and pharmacology of novel anxiolytic agents derived from 2-[(dialkylamino)methyl-4H-triazol-4-yl] benzophenones and related heterocyclic benzophenones” (1976).

What was measured:
Assay type in all cases: functional
Mus musculus [1] = assay: Anxiolytic activity in ip dosed male albino CF-1 mouse assessed as decrease in traction reflex
Mus musculus [2] = assay: Anxiolytic activity in ip dosed male albino CF-1 mouse assessed as decrease in dish reflex
Mus musculus [3] = assay: Anxiolytic activity in ip dosed male albino CF-1 mouse assessed as inhibition of nicotine-induced tonic extensor convulsions
Mus musculus [4] = assay: Anxiolytic activity in ip dosed male albino CF-1 mouse assessed as inhibition of nicotine-induced death
Mus musculus [5] = assay: Anxiolytic activity in ip dosed male albino CF-1 mouse assessed as inhibition of pentylenetetrazole-induced clonic convulsions; conditions: CF-1, ip
Mus musculus [6] = assay: Anxiolytic activity in ip dosed male albino CF-1 mouse assessed as inhibition of thiosemicarbazide -induced lethality; conditions: CF-1, ip
Mus musculus [7] = assay: Anxiolytic activity in ip dosed male albino CF-1 mouse assessed as inhibition of strychnine-induced lethality; conditions: CF-1, ip
Mus musculus [8] = assay: Potentiation of ethanol-induced anxiolytic activity in ip dosed male albino CF-1 mouse; conditions: CF-1, ip
Mus musculus [9] = assay: Anxiolytic activity in ip dosed male albino CF-1 mouse assessed as inhibition of electroshock-induced convulsions; conditions: CF-1, ip
[10] = Mus musculus, CF-1, ip, read-out: ED50

| Structure (SMILES) | ED50 (Mus musculus [1]; [10]) | ED50 (Mus musculus [2]; [10]) | ED50 (Mus musculus [3]; [10]) | ED50 (Mus musculus [4]; [10]) | ED50 (Mus musculus [5]) | ED50 (Mus musculus [6]) | ED50 (Mus musculus [7]) | ED50 (Mus musculus [8]) | ED50 (Mus musculus [9]) | ED50 (Mus musculus [1]) | ED50 (Mus musculus [2]) | ED50 (Mus musculus [3]) | ED50 (Mus musculus [4]) |
| --- | --- | --- | --- | --- | --- | --- | --- | --- | --- | --- | --- | --- | --- |
| CCN(CC)CC(=O)Nc1ccc(Cl)cc1C(=O)c1ccccc1 | > 200 mg/kg | 100 mg/kg | 23 mg/kg | 28 mg/kg | 140 mg/kg |  |  |  |  |  |  |  |  |
| Cc1nnc(CN(C)C)n1-c1ccc(Cl)cc1C(=O)c1ccccc1Cl | 3.2 mg/kg | 0.25 mg/kg | 0.14 mg/kg | 0.14 mg/kg | 0.28 mg/kg | 0.02 mg/kg | 11 mg/kg | 0.63 mg/kg | 50 mg/kg |  |  |  |  |
| CN(C)Cc1nnc(-c2ccncc2)n1-c1ccc(Cl)cc1C(=O)c1ccccc1Cl | > 100 mg/kg | 20 mg/kg | 11 mg/kg | 11 mg/kg |  | 4.4 mg/kg | > 50 mg/kg |  | > 100 mg/kg |  |  |  |  |
| Cc1nnc(CN(C)C)n1-c1ccccc1C(=O)c1ccccc1Cl | > 100 mg/kg | 22 mg/kg | 5 mg/kg | 5 mg/kg | 7 mg/kg | 3.6 mg/kg | > 50 mg/kg | > 100 mg/kg | > 100 mg/kg |  |  |  |  |
| Cc1nnc(CN(C)C)n1-c1ccc(Cl)cc1C(=O)c1ccccc1 | 5 mg/kg | 2.2 mg/kg | 0.5 mg/kg | 0.5 mg/kg | 1.1 mg/kg | 0.3 mg/kg | 5 mg/kg | 1.1 mg/kg | 45 mg/kg |  |  |  |  |
| Cc1nnc(CN2CCCC2)n1-c1ccc(Cl)cc1C(=O)c1ccccc1 | 4 mg/kg | 1.3 mg/kg | 0.4 mg/kg | 0.4 mg/kg | 2 mg/kg | 2 mg/kg | 4 mg/kg | 1.8 mg/kg | 89 mg/kg |  |  |  |  |
| Cc1nnc(CN2CCCC2)n1-c1ccc(Cl)cc1C(=O)c1ccccc1Cl | 18 mg/kg | 1 mg/kg | 1.3 mg/kg | 1.8 mg/kg | 4 mg/kg | 1.1 mg/kg | 1 mg/kg | 6 mg/kg | > 100 mg/kg |  |  |  |  |
| Cc1nnc(CN2CCCC2)n1-c1ccc(Cl)cc1Cc1ccccc1 | > 100 mg/kg | 40 mg/kg | 36 mg/kg | 36 mg/kg | > 100 mg/kg |  |  |  |  |  |  |  |  |
| Cc1nnc(CN2CCOCC2)n1-c1ccc(Cl)cc1C(=O)c1ccccc1 | 5 mg/kg | 1.8 mg/kg | 0.45 mg/kg | 0.5 mg/kg | 1.8 mg/kg | 0.8 mg/kg | 6.3 mg/kg | 4.4 mg/kg | > 50 mg/kg |  |  |  |  |
| CNCc1nnc(C)n1-c1ccc(Cl)cc1C(=O)c1ccccc1 | 2.5 mg/kg | 0.8 mg/kg | 0.1 mg/kg | 0.1 mg/kg | 1.1 mg/kg | 0.3 mg/kg | 3.2 mg/kg | 2 mg/kg | 63 mg/kg |  |  |  |  |
| CCNCc1nnc(C)n1-c1ccc(Cl)cc1C(=O)c1ccccc1 | 2.5 mg/kg | 1 mg/kg | 0.2 mg/kg | 0.2 mg/kg | 0.5 mg/kg | 0.6 mg/kg | 45 mg/kg | 0.6 mg/kg | 45 mg/kg |  |  |  |  |
| CN(C)Cc1nnc(C2CC2)n1-c1ccc(Cl)cc1C(=O)c1ccccc1Cl | 7.1 mg/kg | 1.1 mg/kg | 0.6 mg/kg | 0.6 mg/kg | 1 mg/kg | 0.4 mg/kg | 5 mg/kg | 2.2 mg/kg | 79 mg/kg |  |  |  |  |
| CN(C)Cc1nnc(-c2ccco2)n1-c1ccc(Cl)cc1C(=O)c1ccccc1 | 71 mg/kg | 28 mg/kg | 16 mg/kg | 16 mg/kg | 23 mg/kg | 8 mg/kg | 45 mg/kg | 25 mg/kg | > 100 mg/kg |  |  |  |  |
| Cc1nnc(CN)n1-c1ccc(Cl)cc1C(O)c1ccccc1 (stereo not given) | 9 mg/kg | 2.8 mg/kg | 1.6 mg/kg | 1.6 mg/kg | 4 mg/kg | 1.2 mg/kg | 28 mg/kg | 3.1 mg/kg | 71 mg/kg |  |  |  |  |
| CN(C)Cc1nccn1-c1ccc(Cl)cc1C(=O)c1ccccc1Cl | 11 mg/kg | 2.2 mg/kg | 1 mg/kg | 1.2 mg/kg | 1.8 mg/kg | 1.1 mg/kg | > 50 mg/kg | 2.5 mg/kg |  |  |  |  |  |
| Cc1nc(CN(C)C)n(-c2ccc(Cl)cc2C(=O)c2ccccc2Cl)c1CO | 18 mg/kg | 3.5 mg/kg | 1 mg/kg | 1 mg/kg | 1.8 mg/kg | 2 mg/kg | > 25 mg/kg | 18 mg/kg | 100 mg/kg |  |  |  |  |
| CN(C)Cc1nn(CO)c(=O)n1-c1ccc(Cl)cc1C(=O)c1ccccc1Cl | 6.3 mg/kg | 1 mg/kg | 0.13 mg/kg | 0.13 mg/kg | 0.32 mg/kg | 0.23 mg/kg | 12.5 mg/kg | 2 mg/kg | > 100 mg/kg |  |  |  |  |
| CNCc1nn(C)c(=O)n1-c1ccc(Cl)cc1C(=O)c1ccccc1.Cl | 12.5 mg/kg | 4 mg/kg | 0.45 mg/kg | 0.56 mg/kg | 5.6 mg/kg |  |  |  |  |  |  |  |  |
| CN(C)CCn1nc(CN(C)C)n(-c2ccc(Cl)cc2C(=O)c2ccccc2)c1=O | 100 mg/kg | 28 mg/kg | 6.3 mg/kg | 6.3 mg/kg | 18 mg/kg | 9 mg/kg | > 100 mg/kg | 80 mg/kg | > 100 mg/kg |  |  |  |  |
| NCC(=O)Nc1ccc(Cl)cc1C(=O)c1ccccc1 | 32 mg/kg | 5.6 mg/kg | 0.25 mg/kg | 0.25 mg/kg |  | 1.6 mg/kg | 22 mg/kg | 2.5 mg/kg | 29 mg/kg |  |  |  |  |
| Cc1nnc(CN2CCCC2)n1-c1ccc(Cl)cc1C(O)c1ccccc1 (stereo in doubt; 20) |  |  |  |  |  |  |  |  |  | >25 mg/kg | 16 mg/kg | 8 mg/kg | 8 mg/kg |
| Cc1nnc(CN2CCCC2)n1-c1ccc(Cl)cc1C(O)c1ccccc1 (stereo in doubt; 21) |  |  |  |  | 14 mg/kg |  |  |  |  | >200 mg/kg | 5 mg/kg | 32 mg/kg | 32 mg/kg |
| Cc1nnc2n1-c1ccc(Cl)cc1C(c1ccccc1)=NC2 [ALPRAZOLAM] | 0.6 mg/kg | 0.056 mg/kg | 0.02 mg/kg | 0.02 mg/kg | 0.2 mg/kg | 0.16 mg/kg | 0.3 mg/kg | 0.16 mg/kg | 25.5 mg/kg |  |  |  |  |
| CN1C(=O)CN=C(c2ccccc2)c2cc(Cl)ccc21 [DIAZEPAM] | 5 mg/kg | 0.31 mg/kg | 0.11 mg/kg | 0.11 mg/kg | 0.8 mg/kg | 0.2 mg/kg | 3.6 mg/kg | 1 mg/kg | 20 mg/kg |  |  |  |  |
| Cc1nnc2n1-c1ccc(Cl)cc1C(c1ccccc1Cl)=NC2 [TRIAZOLAM] | 0.6 mg/kg | 0.028 mg/kg | 0.013 mg/kg | 0.014 mg/kg | 0.03 mg/kg | 0.028 mg/kg | 0.23 mg/kg | 0.63 mg/kg | 32 mg/kg |  |  |  |  |
